The subject of experiment [1] is L1210. Nature of the experiment: Selectivity index, ratio of IC50 for mouse L1210 cells to IC50 for mouse P815 cells. The format is functional.
The test system of experiment [2] is 4T1. As to the kind of experiment: Cytotoxicity against mouse 4T1 cells expressing biotin receptor after 72 hrs by MTT assay. The format is functional, cell-based. To be noted: 4T1, 72 h.
For experiment [3], the system named is L1210. Nature of the experiment: Cytotoxicity against mouse L1210 cells after 72 hrs by MTT assay. The format is functional, cell-based. To be noted: L1210, 72 h.
Experiment [4] has as its system P815. As to the kind of experiment: Cytotoxicity against mouse P815 cells expressing biotin receptor after 72 hrs by MTT assay. The format is functional, cell-based. The conditions noted are these: P815, 72 h.
Experiment [5] can be described thus: Antitumor activity against mouse HepS cells xenografted in mouse assessed as tumor growth inhibition at 30 ug/kg. The experiment is classed as functional. To be noted: read-out: TGI.
For experiment [6], the system named is L1210. As to the kind of experiment: Selectivity index, ratio of IC50 for mouse L1210 cells to IC50 for mouse 4T1 cells. The format is functional.
The test system of experiment [7] is P815. Nature of the experiment: Ratio of squamocin IC50 to compound IC50 for mouse P815 cells expressing biotin receptor. The experiment is classed as functional.
In experiment [8] the test system is 4T1. As to the kind of experiment: Ratio of squamocin IC50 to compound IC50 for mouse 4T1 cells expressing biotin receptor. The format is functional.
Experiment [9] has as its system 4T1. As to the kind of experiment: Ratio of bullatacin IC50 to compound IC50 for mouse 4T1 cells expressing biotin receptor. The experiment is classed as functional.
Experiment [10] deals with P815. As to the kind of experiment: Ratio of bullatacin IC50 to compound IC50 for mouse P815 cells expressing biotin receptor. The format is functional.

The results in this text go back to ChEMBL document CHEMBL3098074, “Synthesis and tumor cell growth inhibitory activity of biotinylated annonaceous acetogenins” (Eur J Med Chem, 2014).

For `CCCCCC[C@H](O)CCC[C@H](O)[C@H]1CC[C@H]([C@H]2CC[C@H]([C@H](O)CCCCCCCCCCCCC3=C[C@H](C)OC3=O)O2)O1` [SQUAMOCIN], the “Ratio IC50” value is given as 0.068 in [1] and 3.75 in experiment [6]. Further, the IC50 in experiment [2] came to 360 nM; in [3], 1350 nM; in experiment [4] it was 19800 nM. Further, the inhibition in vivo at 0.03 mg/kg in experiment [5] was determined as 78%.

Consider `CCCCCC[C@@H](CCC[C@H](O)[C@H]1CC[C@H]([C@H]2CC[C@H]([C@@H](CCCCCCCCCCCCC3=C[C@H](C)OC3=O)OC(=O)CCCCCNC(=O)CCCC[C@@H]3SC[C@@H]4NC(=O)N[C@@H]43)O2)O1)OC(=O)CCCCCNC(=O)CCCC[C@@H]1SC[C@@H]2NC(=O)N[C@@H]21`, for which the “Ratio IC50” value in experiment [1] is on record as 1.05; in experiment [7] it was more than 26; in experiment [8], more than 10; in experiment [6], 22.57. The IC50 in experiment [2] was 35 nM; in experiment [3] it was 790 nM; in [4], 750 nM.

Take `CCCCCCCCCC[C@H](OC(=O)CCCCCNC(=O)CCCC[C@@H]1SC[C@@H]2NC(=O)N[C@@H]21)[C@H]1CC[C@H]([C@H]2CC[C@H]([C@H](O)CCCCCCCCCC[C@H](CC3=C[C@H](C)OC3=O)OC(=O)CCCCCNC(=O)CCCC[C@@H]3SC[C@@H]4NC(=O)N[C@@H]43)O2)O1`: the “Ratio IC50” value in [1] was determined as 1.96; in experiment [6], 26.73. The IC50 in [2] stood at 55 nM; in [3], 1470 nM; in experiment [4] it was 750 nM.

As to `CCCCCCCCCC[C@H](O)[C@H]1CC[C@H]([C@H]2CC[C@H]([C@@H](CCCCCCCCCC[C@@H](O)CC3=C[C@H](C)OC3=O)OC(=O)CCCCCNC(=O)CCCC[C@@H]3SC[C@@H]4NC(=O)N[C@@H]43)O2)O1`, the “Ratio IC50” value is listed as less than 0.092 in experiment [1] and 6.1 in experiment [6]. The IC50 in experiment [2] is 300 nM; in experiment [3] it was 1830 nM; in experiment [4], more than 20000 nM.

Regarding `CCCCCC[C@H](O)CCC[C@H](O)[C@H]1CC[C@H]([C@H]2CC[C@H]([C@@H](CCCCCCCCCCCCC3=C[C@H](C)OC3=O)OC(=O)CCCC[C@@H]3SC[C@@H]4NC(=O)N[C@@H]43)O2)O1`, the “Ratio IC50” value in [1] was less than 0.036; in experiment [6], 0.25. Further, the IC50 was 2910 nM in experiment [2], 720 nM in experiment [3] and more than 20000 nM in [4].

With `CCCCCCCCCC[C@H](OC(=O)CCCCCNC(=O)CCCC[C@@H]1SC[C@@H]2NC(=O)N[C@@H]21)[C@H]1CC[C@H]([C@H]2CC[C@H]([C@H](O)CCCCCCCCCC[C@@H](O)CC3=C[C@H](C)OC3=O)O2)O1`, the “Ratio IC50” value in experiment [9] is listed as 3; in [1] it was 2.66; in experiment [10], 8; in experiment [6], 29.46. Also, the IC50 in experiment [2] was 37 nM; in experiment [3], 1090 nM; in experiment [4], 410 nM.
